Molecules are shown by their SMILES.

As usually defined, the IC50 is the concentration that inhibits the measured activity by half.

In test [1] the target is TOP2A (topoisomerase IIα) (Homo sapiens, UniProt P11388). Nature of the test: kDNA decatenation assay with recombinant enzyme. In kind it is biochemical.
The target in test [2] is TOP2B (topoisomerase IIβ) (Homo sapiens, UniProt Q02880). Nature of the test: kDNA decatenation assay with recombinant enzyme. The format is biochemical.
TOP2B (topoisomerase IIβ), sequence (Q02880 2-1626): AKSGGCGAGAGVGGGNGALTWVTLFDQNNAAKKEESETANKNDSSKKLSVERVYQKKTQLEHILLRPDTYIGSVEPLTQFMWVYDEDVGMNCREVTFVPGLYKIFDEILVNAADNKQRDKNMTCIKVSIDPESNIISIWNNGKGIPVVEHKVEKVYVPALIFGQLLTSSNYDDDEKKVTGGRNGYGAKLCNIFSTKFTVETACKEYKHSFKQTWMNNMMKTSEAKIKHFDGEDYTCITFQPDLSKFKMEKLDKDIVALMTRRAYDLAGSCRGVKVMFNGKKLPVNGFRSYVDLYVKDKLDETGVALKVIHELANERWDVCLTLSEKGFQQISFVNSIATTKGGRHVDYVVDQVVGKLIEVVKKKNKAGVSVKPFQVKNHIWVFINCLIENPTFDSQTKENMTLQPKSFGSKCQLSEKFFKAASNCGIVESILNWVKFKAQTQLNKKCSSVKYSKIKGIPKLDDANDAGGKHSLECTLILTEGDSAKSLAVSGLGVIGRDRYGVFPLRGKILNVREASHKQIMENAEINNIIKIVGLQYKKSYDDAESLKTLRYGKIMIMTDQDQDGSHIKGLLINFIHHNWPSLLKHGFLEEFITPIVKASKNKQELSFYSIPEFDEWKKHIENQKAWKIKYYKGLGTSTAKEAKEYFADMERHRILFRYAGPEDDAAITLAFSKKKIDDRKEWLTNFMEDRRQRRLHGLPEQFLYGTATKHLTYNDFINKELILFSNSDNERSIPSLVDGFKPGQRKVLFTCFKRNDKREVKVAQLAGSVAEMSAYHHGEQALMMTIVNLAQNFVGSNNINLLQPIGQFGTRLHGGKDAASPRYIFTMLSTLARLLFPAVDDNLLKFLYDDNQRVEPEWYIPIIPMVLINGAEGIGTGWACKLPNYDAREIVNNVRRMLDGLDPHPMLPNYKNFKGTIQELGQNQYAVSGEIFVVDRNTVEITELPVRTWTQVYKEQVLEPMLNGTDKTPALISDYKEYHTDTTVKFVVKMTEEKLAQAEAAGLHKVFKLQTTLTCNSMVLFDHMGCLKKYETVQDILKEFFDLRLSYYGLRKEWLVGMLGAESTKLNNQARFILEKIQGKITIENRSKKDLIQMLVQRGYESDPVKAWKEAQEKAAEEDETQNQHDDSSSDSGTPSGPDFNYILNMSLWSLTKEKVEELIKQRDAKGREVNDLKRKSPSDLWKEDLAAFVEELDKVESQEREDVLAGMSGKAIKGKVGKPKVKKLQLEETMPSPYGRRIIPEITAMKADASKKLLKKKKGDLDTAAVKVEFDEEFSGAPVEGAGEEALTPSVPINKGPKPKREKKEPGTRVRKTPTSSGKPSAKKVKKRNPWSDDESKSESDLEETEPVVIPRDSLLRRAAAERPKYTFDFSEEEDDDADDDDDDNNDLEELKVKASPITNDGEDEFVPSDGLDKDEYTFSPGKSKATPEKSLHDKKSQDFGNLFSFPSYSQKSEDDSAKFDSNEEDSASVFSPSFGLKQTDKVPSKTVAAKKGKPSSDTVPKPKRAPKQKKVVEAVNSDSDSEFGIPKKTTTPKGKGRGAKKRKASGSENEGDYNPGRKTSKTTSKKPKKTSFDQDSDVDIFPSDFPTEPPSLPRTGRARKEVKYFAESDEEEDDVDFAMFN

TOP2A (topoisomerase IIα), sequence (P11388 whole entry): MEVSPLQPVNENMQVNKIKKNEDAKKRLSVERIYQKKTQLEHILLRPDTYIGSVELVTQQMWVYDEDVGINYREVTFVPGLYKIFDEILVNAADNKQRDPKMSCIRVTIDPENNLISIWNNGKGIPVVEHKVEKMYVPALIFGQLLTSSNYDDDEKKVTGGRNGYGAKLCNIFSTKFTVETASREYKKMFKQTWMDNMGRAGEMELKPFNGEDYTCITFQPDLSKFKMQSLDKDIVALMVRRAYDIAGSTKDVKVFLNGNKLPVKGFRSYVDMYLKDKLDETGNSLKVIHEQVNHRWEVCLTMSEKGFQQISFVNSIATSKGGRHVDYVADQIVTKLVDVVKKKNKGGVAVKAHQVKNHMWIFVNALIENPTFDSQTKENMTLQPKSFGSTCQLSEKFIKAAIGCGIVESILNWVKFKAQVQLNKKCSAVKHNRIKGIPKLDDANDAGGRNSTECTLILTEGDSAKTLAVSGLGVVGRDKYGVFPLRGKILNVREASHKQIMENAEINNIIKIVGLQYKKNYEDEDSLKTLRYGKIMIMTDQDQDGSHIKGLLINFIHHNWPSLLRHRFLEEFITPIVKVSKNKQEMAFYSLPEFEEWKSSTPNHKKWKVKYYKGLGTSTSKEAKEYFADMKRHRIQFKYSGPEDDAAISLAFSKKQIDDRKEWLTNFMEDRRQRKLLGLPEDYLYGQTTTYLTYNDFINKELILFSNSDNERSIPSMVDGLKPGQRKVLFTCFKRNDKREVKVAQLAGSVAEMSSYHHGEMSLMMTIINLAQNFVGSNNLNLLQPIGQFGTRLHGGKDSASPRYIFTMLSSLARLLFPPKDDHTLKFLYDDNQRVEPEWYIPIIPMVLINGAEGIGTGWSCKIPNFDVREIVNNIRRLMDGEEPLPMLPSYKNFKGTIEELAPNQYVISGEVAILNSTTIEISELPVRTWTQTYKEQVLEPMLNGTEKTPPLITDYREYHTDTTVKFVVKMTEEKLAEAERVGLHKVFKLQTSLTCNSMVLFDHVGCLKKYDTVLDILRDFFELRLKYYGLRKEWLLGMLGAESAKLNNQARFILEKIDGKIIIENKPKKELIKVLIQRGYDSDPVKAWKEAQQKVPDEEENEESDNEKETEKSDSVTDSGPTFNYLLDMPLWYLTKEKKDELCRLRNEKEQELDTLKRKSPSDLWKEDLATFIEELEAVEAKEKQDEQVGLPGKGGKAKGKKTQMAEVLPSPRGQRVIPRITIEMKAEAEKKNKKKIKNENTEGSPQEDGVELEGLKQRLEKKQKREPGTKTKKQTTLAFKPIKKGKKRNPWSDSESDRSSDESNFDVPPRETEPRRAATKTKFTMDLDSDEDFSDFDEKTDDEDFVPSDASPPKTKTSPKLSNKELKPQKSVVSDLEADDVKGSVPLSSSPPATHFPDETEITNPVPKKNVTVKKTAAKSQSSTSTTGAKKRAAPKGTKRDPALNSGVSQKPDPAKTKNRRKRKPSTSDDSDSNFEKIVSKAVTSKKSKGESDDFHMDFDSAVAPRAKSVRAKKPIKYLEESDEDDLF

Consider `CC(Oc1ccc(Oc2cnc3ccc(Cl)cc3n2)cc1)C(=O)O` (racemic) [XK469, 2(R)-[4-(7-chloro-2-quinoxalinyl)oxyphenoxy]propionic acid], for which the half-maximal inhibitory concentration (IC50) in test [1] and in test [2] was around 130 µM throughout.
For `C[C@@H](CN1CC(=O)NC(=O)C1)N1CC(=O)NC(=O)C1` [DEX, dexrazoxane], the 50% inhibitory concentration (IC50) in test [1] and in test [2] was around 60 µM throughout.

The values are drawn from article PMC10964739 (Toxicological Sciences, 2024).
